The source of these data is US20260159520A1, “HETEROBIFUNCTIONAL COMPOUNDS AND METHODS OF TREATING DISEASE” (Halda Therapeutics OpCo, Inc., priority 2022, published 2026).

Common to all, as to format: cell-based
Experiment [1] concerns T-Rex 293 cell line SC3 cells having increased expression of androgen receptor protein. Kind of experiment: Cellular growth inhibition, T-Rex 293 SC3 cells with doxycycline (increased androgen receptor expression). The settings on record: with 10 ng/mL doxycycline (increased androgen receptor), 72 hours, CellTiter-Glo 2.0. The protocol:
(§1) The following types of cells were prepared for this experiment: (i) a T-Rex 293 cell line having increased expression of androgen receptor protein due to exposure to doxycycline and (ii) a T-Rex 293 cell line lacking increased expression of androgen receptor protein. Ability of the test compounds to inhibit proliferation of the foregoing cell types was evaluated according to the procedures set forth below.
(§2) The doxycycline-inducible androgen receptor protein expressing cell line was established using the following protocol: T-Rex 293 cells were purchased from Invitrogen (Cat #R71007) and transfected using Lipofectamine 2000 with the wild-type androgen receptor protein sequence cloned into the pcDNA4/TO vector. Transfected cells were selected using 400 μg/mL Zeocin (Invitrogen Cat #R25001). Following selection, single clones were raised and maintained in Dulbecco's Modified Eagle Medium (DMEM) supplemented with 10% w/w Tetracycline-free fetal bovine serum (FBS) and 250 μg/mL Zeocin. Clones were analyzed for expression of androgen receptor protein in the presence and absence of 10 ng/mL doxycycline (Sigma Cat #D9891), and a single doxycycline-inducible clone (hereinafter “SC3”) was selected for use in downstream assays.
(§3) The SC3 cells were seeded on poly-D-lysine coated, black clear-bottom 384-well plates at 2500/well, in 25 μL Phenol Red Free Dulbecco's Modified Eagle Medium (DMEM) supplemented with 10% w/w charcoal-dextran treated fetal bovine serum (FBS) and 1% w/w pen-strep, with or without 10 ng/mL doxycycline. Pen-Strep is a commercially available mixture of penicillin G and streptomycin, which is used in mammalian cell culture media to prevent bacterial contamination. Phenol Red Free Dulbecco's Modified Eagle Medium (DMEM) supplemented with 10% w/w charcoal-dextran treated fetal bovine serum (FBS) and 1% w/w pen-strep, with or without 10 ng/mL doxycycline is herein referred to as Treatment Medium. Following seeding of cells in the plates, the plates were spun at 300×g for 30 seconds, then equilibrated to room temperature for 30 minutes, and then deposited in a humidified tissue culture incubator maintained at 37° C. with 5% CO2.
(§4) At 24 hours after seeding of the cells, dilutions of test compound were prepared in DMSO and dissolved in Treatment Medium, to achieve a final DMSO concentration of 0.5% w/w, thereby providing the Test Compound Solution. A 25 μL aliquot of the Test Compound Solution was added to cells in the well plates. An equal volume of a solution containing DMSO and Treatment Medium was used as a negative control. Following treatment of cells with Test Compound Solution or said equal volume of a solution containing DMSO and Treatment Medium, the plates were spun at 300×g for 30 seconds, and then left in an incubator for 72 hours.
(§5) At the end of the treatment duration, cell viability was quantified with CellTiter-Glo 2.0 reagent (Promega Cat #G9243). For this purpose, plates were equilibrated to room temperature for 30 minutes, and then 25 μL of CellTiter-Glo 2.0 reagent was added to cells in the plate wells. Plates were then agitated on a shaker for two minutes at 500 rpm and subsequently incubated at room temperature for 10 minutes. Following incubation, the plates were spun at 3000×g for 30 seconds, then sealed with an optical adhesive cover, and luminescence readings were measured with an EnVision Plate Reader.
(§6) Data was normalized using zero luminescence for baseline. A four-parameter non-linear regression curve fit was applied to dose-response data in GraphPad Prism data analysis software to determine the half-maximal growth inhibitory concentration (GI50) for each test compound.

Experiment [2] has as its system T-Rex 293 cell line SC3 cells lacking increased expression of androgen receptor protein. Kind of experiment: Cellular growth inhibition, T-Rex 293 SC3 cells without doxycycline. Conditions: not exposed to doxycycline, 72 hours, CellTiter-Glo 2.0. The protocol:
as §1, §2, §3, §4, §5, §6

Another experiment concerns VCaP cells. Briefly: Cellular growth inhibition assay for VCaP cells. The settings on record: Homo sapiens, 72 hours, CellTiter-Glo 2.0. As to the method:
VCaP cells were purchased from American Type Cell Culture (ATCC Cat #CRL2876) and then seeded on poly-D-lysine coated, black clear-bottom 384-well plates at 5000/well in 25 μL Dulbecco's Modified Eagle Medium (DMEM) supplemented with 10% w/w Fetal bovine serum (FBS) and 1% w/w Pen-Strep. Pen-Strep is a commercially available mixture of penicillin G and streptomycin, which is used in mammalian cell culture media to prevent bacterial contamination. Dulbecco's Modified Eagle Medium (DMEM) supplemented with 10% w/w fetal bovine serum (FBS) and 1% w/w Pen-Strep is herein referred to as Treatment Medium. Following seeding of cells in the plates, the plates were spun at 300×g for 30 seconds, then equilibrated to room temperature for 30 minutes, and then deposited in a humidified tissue culture incubator maintained at 37° C. with 5% CO2.
as §4
as §5, with “Reader. Data was normalized using zero luminescence for baseline.” for “Reader.”
A four-parameter non-linear regression curve fit was applied to dose-response data in GraphPad Prism data analysis software to determine the half-maximal growth inhibitory concentration (GI50) for each test compound.

Turning to `CN(CCOCCOCCOCCOCCOCCOCCNS(=O)(=O)c1ccc(Nc2ncc(Br)c(Nc3cccc(F)c3C(N)=O)n2)cc1)c1ncc(C(=O)N[C@H]2C(C)(C)[C@H](Oc3ccc(C#N)c(Cl)c3)C2(C)C)cn1` [Compound I-21], the GI50 in experiment [1] and in experiment [2] was more than 3.5 µM throughout.

Turning to `CCc1cnn2c(NCc3ccc(OCCCOCCCCOC4CCN(c5ncc(C(=O)N[C@H]6C(C)(C)[C@H](Oc7ccc(C#N)c(Cl)c7)C6(C)C)cn5)CC4)nc3)cc(N3CCCC[C@H]3CCO)nc12` [Compound I-39], the GI50 is less than 0.1 µM in experiment [1], more than 3.5 µM in experiment [2] and more than 3.5 µM in the experiment on VCaP cells.

`CCc1cnn2c(NCc3ccc(OCCCN4CCN(CC5CCN(c6ccc(C(=O)N[C@H]7C(C)(C)[C@H](Oc8ccc(C#N)c(Cl)c8)C7(C)C)nc6)CC5)CC4)nc3)cc(N3CCCC[C@@H]3CCO)nc12` [Compound I-57, N-((1r,3r)-3-(3-chloro-4-cyanophenoxy)-2,2,4,4-tetramethylcyclobutyl)-5-(4-((4-(3-((5-(((3-ethyl-5-((R)-2-(2-hydroxyethyl)piperidin-1-yl)pyrazolo[1,5-a]pyrimidin-7-yl)amino)methyl)pyridin-2-yl)oxy)propyl)piperazin-1-yl)methyl)piperidin-1-yl)picolinamide]: the GI50 (in experiment [1]; in experiment [2]; in the experiment on VCaP cells) was 0.1 to 1 µM throughout.

For the compound `CCc1cnn2c(CCc3ccc(OCCCCCCOC4CCN(c5ncc(C(=O)N[C@H]6C(C)(C)[C@H](Oc7ccc(C#N)c(Cl)c7)C6(C)C)cn5)CC4)nc3)cc(N3CCCC[C@H]3CCO)nc12` [Compound I-29], the GI50 in experiment [1] is 0.1 to 1 µM; in experiment [2], more than 3.5 µM.

Turning to `CCc1cnn2c(NCc3ccc(OCCOCCCCCOC4CCN(c5ncc(C(=O)N[C@H]6C(C)(C)[C@H](Oc7ccc(C#N)c(Cl)c7)C6(C)C)cn5)CC4)nc3)cc(N3CCCC[C@H]3CCO)nc12` [Compound I-40], the GI50 in experiment [1] was less than 0.1 µM; in experiment [2], more than 3.5 µM; in the experiment on VCaP cells it was more than 3.5 µM.

Turning to `CC1(C)[C@H](NC(=O)c2cnc(N3CCC(OCCOCCOCCOCCOCCOCCOCCNS(=O)(=O)c4ccc(Nc5ncc(Br)c(Nc6cccc(F)c6C(N)=O)n5)cc4)CC3)nc2)C(C)(C)[C@H]1Oc1ccc(C#N)c(Cl)c1` [Compound I-16], the GI50 in experiment [1] and in experiment [2] was more than 3.5 µM in each case.

`CCc1cnn2c(NCc3ccc(OCCOCCCCOC4CCN(c5ncc(C(=O)N[C@H]6C(C)(C)[C@H](Oc7ccc(C#N)c(Cl)c7)C6(C)C)cn5)CC4)nc3)cc(N3CCCC[C@H]3CCO)nc12` [Compound I-36]: the GI50 in experiment [1] was less than 0.1 µM; in experiment [2], more than 3.5 µM; in the experiment with VCaP cells, less than 0.1 µM.

On to `CCc1cnn2c(NCc3ccc(OCCCCOCCCOC4CCN(c5ncc(C(=O)N[C@H]6C(C)(C)[C@H](Oc7ccc(C#N)c(Cl)c7)C6(C)C)cn5)CC4)nc3)cc(N3CCCC[C@H]3CCO)nc12` [Compound I-38], for which the values for the GI50 (in experiment [1]; in experiment [2]; in the experiment on VCaP cells) were 0.1 to 1 µM, more than 3.5 µM and 0.1 to 1 µM, respectively.

`CCc1cnn2c(NCc3ccc(OCCCOCCCOC4CCN(c5ncc(C(=O)N[C@H]6C(C)(C)[C@H](Oc7ccc(C#N)c(Cl)c7)C6(C)C)cn5)CC4)nc3)cc(N3CCCC[C@H]3CCO)nc12` [Compound I-35]: the figures for the GI50 (in experiment [1]; in experiment [2]; in the experiment with VCaP cells) were less than 0.1 µM, 0.1 to 1 µM and 0.1 to 1 µM, respectively.

In the case of `CCc1cnn2c(NCc3ccc(OCCCOC4CCN(c5ncc(C(=O)N[C@H]6C(C)(C)[C@H](Oc7ccc(C#N)c(Cl)c7)C6(C)C)cn5)CC4)nc3)cc(N3CCCC[C@H]3CCO)nc12` [Compound I-26], the figures for the GI50 in experiment [1] and in experiment [2] were 1 to 3.5 µM and more than 3.5 µM, respectively.

Turning to `CCc1cnn2c(NCc3ccc(OCCCCCCCOC4CCN(c5ncc(C(=O)N[C@H]6C(C)(C)[C@H](Oc7ccc(C#N)c(Cl)c7)C6(C)C)cn5)CC4)nc3)cc(N3CCCC[C@H]3CCO)nc12` [Compound I-30], the GI50 in experiment [1] and in experiment [2] was more than 3.5 µM each time.

On to `CCc1cnn2c(NCc3ccc(OCCCOCCOC4CCN(c5ncc(C(=O)N[C@H]6C(C)(C)[C@H](Oc7ccc(C#N)c(Cl)c7)C6(C)C)cn5)CC4)nc3)cc(N3CCCC[C@H]3CCO)nc12` [Compound I-32], for which the figures for the GI50 (in experiment [1]; in experiment [2]; in the experiment on VCaP cells) were less than 0.1 µM, 1 to 3.5 µM and less than 0.1 µM, respectively.

Take `CCc1cnn2c(NCc3ccc(OCCCC4CCN(CC5CCN(c6ncc(C(=O)N[C@H]7C(C)(C)[C@H](Oc8ccc(C#N)c(Cl)c8)C7(C)C)cn6)CC5)CC4)nc3)cc(N3CCCC[C@H]3CCO)nc12` [Compound I-53]: the GI50 in experiment [1] was less than 0.1 µM; in experiment [2] it was 0.1 to 1 µM.

As for `CCc1cnn2c(NCc3ccc(OCCOCCCOC4CCN(c5ncc(C(=O)N[C@H]6C(C)(C)[C@H](Oc7ccc(C#N)c(Cl)c7)C6(C)C)cn5)CC4)nc3)cc(N3CCCC[C@H]3CCO)nc12` [Compound I-33], the GI50 in experiment [1] was less than 0.1 µM; in experiment [2], 1 to 3.5 µM; in the experiment with VCaP cells it was 0.1 to 1 µM.

Consider `CCc1cnn2c(NCc3ccc(OCCCCCOCCOC4CCN(c5ncc(C(=O)N[C@H]6C(C)(C)[C@H](Oc7ccc(C#N)c(Cl)c7)C6(C)C)cn5)CC4)nc3)cc(N3CCCC[C@H]3CCO)nc12` [Compound I-37], for which the GI50 in experiment [1] was 0.1 to 1 µM; in experiment [2], more than 3.5 µM; in the experiment with VCaP cells, more than 3.5 µM.

Turning to `CCc1cnn2c(NCc3ccc(OCCCCCOC4CCN(c5ncc(C(=O)N[C@H]6C(C)(C)[C@H](Oc7ccc(C#N)c(Cl)c7)C6(C)C)cn5)CC4)nc3)cc(N3CCCC[C@H]3CCO)nc12` [Compound I-28], the 50% growth inhibitory concentration (GI50) in experiment [1] is 0.1 to 1 µM; in experiment [2] it was more than 3.5 µM.

Consider `CCc1cnn2c(NCc3ccc(OCCCN4CCN(CC5CCN(c6cnc(C(=O)N[C@H]7C(C)(C)[C@H](Oc8ccc(C#N)c(Cl)c8)C7(C)C)cn6)CC5)CC4)nc3)cc(N3CCCC[C@@H]3CCO)nc12` [Compound I-56, N-((1r,3r)-3-(3-chloro-4-cyanophenoxy)-2,2,4,4-tetramethylcyclobutyl)-5-(4-((4-(3-((5-(((3-ethyl-5-((R)-2-(2-hydroxyethyl)piperidin-1-yl)pyrazolo[1,5-a]pyrimidin-7-yl)amino)methyl)pyridin-2-yl)oxy)propyl)piperazin-1-yl)methyl)piperidin-1-yl)pyrazine-2-carboxamide], for which the GI50 (in experiment [1]; in experiment [2]; in the experiment on VCaP cells) was 0.1 to 1 µM each time.
